According to patent publication US20230265151A1, “GIP/GLP1 CO-AGONIST COMPOUNDS” (priority 2020, published 2023):
Where two headings read alike, the source gives them in different places. *1 amine or outer side, *2 acyl side, *3 side chain or, on linkers, in order; H or OH if unused. Where a SMILES comes first, the peptide text is derived from it. Side-chain parts run from the residue outwards. [ ]: non-standard residue; d: D form. The star is where a group is joined. αMePhe(2-F) = C[C@](N)(Cc1ccccc1F)C(=O)O; γGlu = O=C(O)[C@H](CCC(=O)[*:2])N[*:1]; C14 diacid = O=C(O)CCCCCCCCCCCCC(=O)*; αMeY = C[C@](N)(Cc1ccc(O)cc1)C(=O)O; 4Pal = N[C@@H](Cc1ccncc1)C(=O)O; αMeL = CC(C)C[C@](C)(N)C(=O)O; Orn = NCCC[C@H](N)C(=O)O; AEEA = NCCOCCOCC(=O)O; Aib = CC(C)(N)C(=O)O

Experiments:
[1] = molecular target: T1, human Gcg receptor (hGcgR) (Homo sapiens, UniProt P47871); experiment: [125I]-Glucagon binding, SPA with membranes of HEK293 cells expressing hGcgR; conditions: human GcgR; geometric mean (SEM, n); read-out: Binding Affinity Ki, nM (SEM, n) hGCGR
T1 construct: expressed in transfected cells; crude membranes
T1 sequence (P47871 26-477): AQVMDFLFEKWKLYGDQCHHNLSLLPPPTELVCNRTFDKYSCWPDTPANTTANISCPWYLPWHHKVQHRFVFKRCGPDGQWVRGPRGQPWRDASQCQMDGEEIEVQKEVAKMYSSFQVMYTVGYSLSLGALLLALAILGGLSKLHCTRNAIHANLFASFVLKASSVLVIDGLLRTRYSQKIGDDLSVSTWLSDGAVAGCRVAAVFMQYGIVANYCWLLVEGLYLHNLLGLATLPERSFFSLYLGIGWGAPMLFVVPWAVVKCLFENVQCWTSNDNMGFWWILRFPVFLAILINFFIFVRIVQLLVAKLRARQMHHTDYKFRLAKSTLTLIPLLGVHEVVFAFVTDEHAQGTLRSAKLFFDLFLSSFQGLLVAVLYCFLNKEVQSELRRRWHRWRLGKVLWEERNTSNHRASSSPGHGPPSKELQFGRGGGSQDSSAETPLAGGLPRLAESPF
Description: Two methods are used for the preparation of crude cell membranes.
Method 1: Frozen cell pellets are lysed on ice in hypotonic buffer containing 50 mM Tris HCl, pH 7.5, and Roche Complete™ Protease Inhibitors with EDTA. […] The homogenate is centrifuged at 4° C. at 1100 × g for 10 minutes. The supernatant is collected and stored on ice while the pellets are resuspended in homogenization buffer and rehomogenized as described above. The homogenate is centrifuged at 1100 × g for 10 minutes. The second supernatant is combined with the first supernatant and centrifuged at 35000 × g for 1 hour at 4° C. The resulting membrane pellet is resuspended in homogenization buffer containing protease inhibitors at approximately 1 to 3 mg/mL, quick frozen in liquid nitrogen and stored as aliquots in a -80° C. freezer until use.
The homogenate is centrifuged at 4° C. at 1800 × g for 15 minutes. The supernatant is collected and stored on ice while the pellets are resuspended in homogenization buffer (without DNAse I) and rehomogenized as described above. The homogenate is centrifuged at 1800 × g for 15 minutes. The second supernatant is combined with the first supernatant and centrifuged an additional time at 1800 × g for 15 minutes. The overall supernatant is then centrifuged at 25000 × g for 30 minutes at 4° C. The resulting membrane pellet is resuspended in homogenization buffer (without DNAse I) containing protease inhibitors at approximately 1 to 3 mg/mL and stored as aliquots in a -80° C. freezer until use.
The human Gcg receptor binding assays are performed using a Scintillation Proximity Assay (SPA) format with wheat germ agglutinin (WGA) beads (Perkin Elmer). The binding buffer contains 25 mM 4-(2-hydroxyethyl)-1-piperazineethanesulfonic acid (HEPES), pH 7.4, 2.5 mM CaCl2, 1 mM MgCh, 0.1% (w/v) bacitracin (Research Products), 0.003% (w/v) Polyoxyethylenesorbitan monolaurate (TWEEN®-20), and Roche Complete™ Protease Inhibitors without EDTA. […] Next, 5 µL serially diluted compound or DMSO is transferred into Corning® 3632 clear bottom assay plates containing 45 µL assay binding buffer or unlabeled Gcg control (non-specific binding or NSB, at 1 µM final). […] Plates are sealed and mixed on a plate shaker (setting 6) for 1 minute and read with a PerkinElmer Trilux MicroBeta® scintillation counter after 12 hours of incubation/settling time at room temperature.
Raw CPM data for concentration curves of peptides, Gcg, GLP-1, or GIP are converted to percent inhibition by subtracting nonspecific binding (binding in the presence of excess unlabeled Gcg, GLP-1, or GIP, respectively) from the individual CPM values and dividing by the total binding signal, also corrected by subtracting nonspecific binding. Data are analyzed using four-parameter (curve maximum, curve minimum, IC50, Hill slope) nonlinear regression routines (Genedata Screener, version 12.0.4, Genedata AG, Basal, Switzerland). […] Values for Ki are reported as the geometric mean, with error expressed as the standard error of the mean (SEM) and n is equal to the number of independent replicates (determined in assays performed on different days). Geometric Means are calculated as follows: […]
The Ki Ratio (Ki for native control peptide/Ki for test compound) at each receptor and each species is calculated. The Ki Ratio is a rapid indication of the apparent affinity of a peptide compared to the native control peptide.
n=⅟x means that only one value out of the total number of replicates (x) is used to express the mean. SEM is only calculated when n=2 or greater non-qualified results exist. Means are expressed as GeoMetric means with the standard error of the mean (SEM) and the number of replicates (n) indicated in parenthesis.

hGIPR = molecular target: T2, hGIPR (Homo sapiens, UniProt P48546); experiment: Functional cAMP formation (HTRF) in HEK-293 clonal cells expressing hGIPR, 0.1% bovine casein, without or with 1.0% human serum albumin; assay type: cell-based; conditions: for Emax: read-out: hGIPR Emax, % ± SEM; for EC50: geometric mean, read-out: hGIPR EC50, nM (SEM, n)
T2 construct: expressed in transfected cells
T2 sequence (P48546 22-466): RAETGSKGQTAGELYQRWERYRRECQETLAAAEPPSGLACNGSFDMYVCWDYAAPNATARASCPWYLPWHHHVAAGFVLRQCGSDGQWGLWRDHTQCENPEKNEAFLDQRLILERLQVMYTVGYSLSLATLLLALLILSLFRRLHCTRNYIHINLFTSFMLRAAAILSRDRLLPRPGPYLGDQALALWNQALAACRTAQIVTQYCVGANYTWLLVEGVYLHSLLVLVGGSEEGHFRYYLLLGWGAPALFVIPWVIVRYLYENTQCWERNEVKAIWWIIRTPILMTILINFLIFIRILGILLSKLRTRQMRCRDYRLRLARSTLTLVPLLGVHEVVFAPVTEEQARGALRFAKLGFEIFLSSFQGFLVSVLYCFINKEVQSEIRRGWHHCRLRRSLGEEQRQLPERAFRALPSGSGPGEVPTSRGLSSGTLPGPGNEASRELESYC
Procedure, shortened: (§1)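 Cells were stimulated with peptide for 30 min at 37° C, then lysed in buffer carrying cAMP-d2 and anti-cAMP Eu3+-cryptate for a competitive HTRF read after at least 60 min at room temperature. The 665/620 nm ratio was converted to nM cAMP against a standard curve.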

hGCGR = molecular target: T3, hGCGR (Homo sapiens, UniProt P47871); experiment: Functional cAMP formation (HTRF) in HEK-293 clonal cells expressing hGCGR, 0.1% bovine casein, without or with 1.0% human serum albumin; assay type: cell-based; conditions: read-out: hGCGR EC50, nM (SEM, n)
T3 construct: expressed in transfected cells
T3 sequence (P47871 26-477): as the sequence (P47871 26-477) above
Procedure, shortened: as §1

hGLP-1R = hGLP-1R (Homo sapiens, UniProt P43220); experiment: Functional cAMP formation (HTRF) in HEK-293 clonal cells expressing hGLP-1R, 0.1% bovine casein, without or with 1.0% human serum albumin; assay type: cell-based; set-up: expressed in transfected cells; conditions: for Emax: HEK293, cAMP, percent of maximal response to GLP-1(7-36)NH2, read-out: hGLP-1R Emax, % ± SEM; for EC50: read-out: hGLP-1R EC50, nM (SEM, n)
Chain of hGLP-1R (P43220 24-463): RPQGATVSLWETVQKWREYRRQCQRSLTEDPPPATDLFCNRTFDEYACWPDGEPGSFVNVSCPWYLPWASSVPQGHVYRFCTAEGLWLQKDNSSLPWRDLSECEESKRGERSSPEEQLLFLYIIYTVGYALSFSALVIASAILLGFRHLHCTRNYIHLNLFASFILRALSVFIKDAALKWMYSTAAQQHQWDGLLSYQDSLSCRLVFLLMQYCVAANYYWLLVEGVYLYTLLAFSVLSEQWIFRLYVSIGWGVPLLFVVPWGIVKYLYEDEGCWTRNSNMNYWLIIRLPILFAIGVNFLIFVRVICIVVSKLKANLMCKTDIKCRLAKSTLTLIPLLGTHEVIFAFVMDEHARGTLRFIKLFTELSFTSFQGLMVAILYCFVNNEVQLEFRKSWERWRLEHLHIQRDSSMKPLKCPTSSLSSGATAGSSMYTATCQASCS
Procedure, shortened: as §1

[2] = cAMP, 37° C., 0.1% bovine casein (no human serum albumin), geometric mean
[3] = cAMP, 37° C., 0.1% bovine casein and 1.0% human serum albumin, geometric mean (SEM, n)
[4] = 0.1% bovine casein and 1.0% human serum albumin, 37° C., geometric mean
[5] = cAMP, incubated at 37° C., 0.1% bovine casein (no human serum albumin), geometric mean

Row | Structure (SMILES) | Ki [1] | Emax (hGIPR; HEK293, cAMP, 37° C., 0.1% bovine casein and 1.0% human serum albumin, percent of maximal response to GIP(1-42)NH2) | EC50 (hGIPR; cAMP, 37° C., 0.1% bovine casein (no human serum albumin)) | EC50 (hGCGR; [2]) | EC50 (hGCGR; [3]) | Emax (hGLP-1R; 37° C., 0.1% bovine casein and 1.0% human serum albumin) | Emax (hGLP-1R; 37° C., 0.1% bovine casein, arithmetic mean) | EC50 (hGLP-1R; [2]) | EC50 (hGLP-1R; [3]) | EC50 (hGIPR; 0.1% bovine casein and 1.0% human serum albumin, 37° C.) | Emax (hGIPR; HEK293, 0.1% bovine casein and 1.0% human serum albumin, 37° C., percent of maximal response to GIP(1-42)NH2) | Emax (hGIPR; HEK293, percent of maximal response to GIP(1-42)NH2, 37° C., 0.1% bovine casein, arithmetic mean) | EC50 (hGIPR; cAMP, incubated at 37° C., 0.1% bovine casein (no human serum albumin)) | EC50 (hGCGR; [4]) | EC50 (hGCGR; [5]) | EC50 (hGLP-1R; [4]) | EC50 (hGLP-1R; [5])
1 | CC[C@H](C)[C@H](NC(=O)[C@H](CC(C)C)NC(=O)[C@](C)(Cc1ccc(O)cc1)NC(=O)[C@@H](CCC(=O)O)NC(=O)[C@@H](NC(=O)[C@H](Cc1ccccc1)NC(=O)[C@H](CCCCNC(=O)COCCOCCNC(=O)COCCOCCNC(=O)CC[C@H](NC(=O)CCCCCCCCCCCCC(=O)O)C(=O)O)NC(=O)C(C)(C)NC(=O)[C@H](CCC(N)=O)NC(=O)[C@H](C)NC(=O)[C@H](CCC(N)=O)NC(=O)[C@H](CCCN)NC(=O)[C@H](CC(=O)O)NC(=O)[C@H](CC(C)C)NC(=O)[C@](C)(CC(C)C)NC(=O)[C@@H](NC(=O)C(C)(C)NC(=O)[C@H](Cc1ccncc1)NC(=O)[C@H](CC(=O)O)NC(=O)[C@H](CO)NC(=O)[C@@H](NC(=O)[C@](C)(Cc1ccccc1F)NC(=O)[C@@H](NC(=O)CNC(=O)[C@H](CCC(=O)O)NC(=O)C(C)(C)NC(=O)[C@@H](N)Cc1ccc(O)cc1)[C@@H](C)O)[C@@H](C)O)[C@@H](C)CC)[C@@H](C)CC)C(=O)N[C@@H](CCC(=O)O)C(=O)NCC(=O)NCC(=O)N1CCC[C@H]1C(=O)N[C@@H](CO)C(=O)N[C@@H](CO)C(=O)NCC(=O)N[C@@H](C)C(=O)N1CCC[C@H]1C(=O)N1CCC[C@H]1C(=O)N1CCC[C@H]1C(=O)N[C@@H](CO)C(=O)N[C@@H](CCCCNC(=O)COCCOCCNC(=O)COCCOCCNC(=O)CC[C@H](NC(=O)CCCCCCCCCCCCC(=O)O)C(=O)O)C(N)=O [Example 489] (H-Y[Aib]EGT[αMePhe(2-F)]TSD[4Pal][Aib]I[αMeL]LD[Orn]QAQ[Aib]K([AEEA-AEEA-γGlu-C14 diacid])FI[dE][αMeY]LIEGGPSSGAPPPSK([AEEA-AEEA-γGlu-C14 diacid])-NH2) | > 957 nM | 79.4% | 0.0131 nM | > 10100 nM | > 9950 nM | 98.7% | 112% | 0.257 nM | 13.5 nM | – | – | – | – | – | – | – | –
2 | CC[C@H](C)[C@H](NC(=O)[C@H](CC(C)C)NC(=O)[C@](C)(Cc1ccc(O)cc1)NC(=O)[C@@H](CCC(=O)O)NC(=O)[C@@H](NC(=O)[C@H](Cc1ccccc1)NC(=O)[C@H](CCC(=O)O)NC(=O)C(C)(C)NC(=O)[C@H](CCC(N)=O)NC(=O)[C@H](C)NC(=O)[C@H](CCCCNC(=O)COCCOCCNC(=O)COCCOCCNC(=O)CC[C@H](NC(=O)CCCCCCCCCCCCC(=O)O)C(=O)O)NC(=O)[C@H](CCCN)NC(=O)[C@H](CC(=O)O)NC(=O)[C@H](CC(C)C)NC(=O)[C@](C)(CC(C)C)NC(=O)[C@@H](NC(=O)[C@H](CO)NC(=O)[C@H](Cc1ccncc1)NC(=O)[C@H](CC(=O)O)NC(=O)[C@H](CO)NC(=O)[C@@H](NC(=O)[C@](C)(Cc1ccccc1F)NC(=O)[C@@H](NC(=O)CNC(=O)[C@H](CCC(=O)O)NC(=O)C(C)(C)NC(=O)[C@@H](N)Cc1ccc(O)cc1)[C@@H](C)O)[C@@H](C)O)[C@@H](C)CC)[C@@H](C)CC)C(=O)N[C@@H](CCC(=O)O)C(=O)NCC(=O)NCC(=O)N1CCC[C@H]1C(=O)N[C@@H](CO)C(=O)N[C@@H](CO)C(=O)NCC(=O)N[C@@H](C)C(=O)N1CCC[C@H]1C(=O)N1CCC[C@H]1C(=O)N1CCC[C@H]1C(=O)N[C@@H](CO)C(=O)N[C@@H](CCCCNC(=O)COCCOCCNC(=O)COCCOCCNC(=O)CC[C@H](NC(=O)CCCCCCCCCCCCC(=O)O)C(=O)O)C(N)=O [Example 19] | > 966 nM | – | – | – | – | – | – | – | – | 0.438 nM | 89.7 ± 2.13% | 96.6 ± 2.7% | 0.0158 nM | > 9950 nM | > 9950 nM | 24.4 nM | 1.34 nM
